According to patent US20210369583A1, “COMPOSITIONS FOR PROVIDING SKIN CARE BENEFITS AND METHODS OF USE” (Danisco US Inc., priority 2018, published 2021):

Experiments:
Type in all cases: cell-based
MT-1H (Metallothionein) = test: Immunostaining of MT-1H in human skin explants, image analysis; settings: after pollutants exposure
Description: 59 human skin explants of an average diameter of 14 mm (±1 mm) were prepared on an abdoplasty coming from a person. The explants were kept in survival in BEM culture medium at 37° C. in a humid, 5%-CO2 atmosphere.
The tested products were topically applied on the basis of 2 μl per cm^2 and spread using a small spatula twice a day (morning and evening) on day 0, 1, 2, 3 and 4.
On D4, the explants of the batches ML and PML were placed on the 3D grid with 900 μl of HBSS and placed into the PolluBox® system.
3 mL of the solution <<ML>> (supplemented with 150 μl/ml of NaCl 0.9%) were exposed by vaporization for 1 hour and half, as shown in the figure below.
Metallothionein (MT) is a unique heat-stable protein with a metal binding domain consisting of 20 cysteine residues. […] The immunostaining was performed using an automated slide processing system (Autostainer, Dako) and assessed by microscopical observation. […]
The images analyses were performed on all the images (9 to 12 images) of each batch using the CellD storing software (Olympus Microscopy, Matrix Optics (M)SdnBhd, Taman Mayhang, Maylasia). For each batch of explants, the percentage of the region of interest covered by the staining (stained surface percentage) was determined by image analysis. […]
Analyzed batches: T, P2, ML, P2ML (4 batches, 3 explants/batch, so 12 explants) at day 5 referred to as: TJ5, P2J5, MLJ5, P2MLJ5.

[1] = test system: human living skin explant; test: TUNEL assay (UV-induced DNA damage) on human living skin explants; settings: UV irradiated
Description: (§1) human skin explants of an average diameter of 12 mm (±1 mm) were prepared on an abdoplasty coming from a person). The explants were kept in survival in BEM culture medium at 37° C. in a humid, 5%-CO2 atmosphere.
(§2) On day 0 (D0), day 1, day 2 and day 3 (3 hours before irradiation), the tested products were applied topically on surface of skin explants at the rate of 2 mg/cm^2, twice a day for D1 and D2 and once on DO and D3. […] The medium was half renewed (1 ml per well) on day 2.
(§3) On D3, the culture media of all the batches was replaced by HBSS solution (Hank's Balanced Saline Solution; 1 ml per explant). The batches “UV” were irradiated by UVA+ UVB using a UV simulator Vibert Lourmat RMX 3W with a dose of 18 J/cm2 of UVA (4 MED, minimal erythemal dose) and 0.3 J/cm2 of UVB (2 MED). The unirradiated batches were kept in HBSS in the dark. At the end of the irradiation the explants were put back in 2 mL of BEM medium.
(§4) After fixation for 24 hours in buffered formalin, the samples were dehydrated and impregnated in paraffin using a Leica PEARL dehydration automat. The samples were embedded using a Leica EG 1160 embedding station. 5-μm-thick sections were made using a Leica RM 2125 Minot-type microtome, and the sections were mounted on Superfrost® histological glass slides. The frozen samples were cut into 7-μm-thick sections using a Leica CM 3050 cryostat. Sections were then mounted on Superfrost® plus silanized glass slides. The microscopical observations were realized using a Leica DMLB or Olympus BX43 microscope. Pictures were digitized with a numeric DP72 Olympus camera with CellD storing software.
DNA oxidization is a type of damage that can be promoted by reactive oxygen species (ROS), generated by UV exposure. […] The staining was assessed by microscopical observation. Batches analyzed were T, TUV, P1UV, P2UV, P3UV at day 4 also referred to as TJ4, TUVJ4, P1UVJ4, P2UVJ4, P3UVJ4 (T=Control batch non treated non irradiated; TJ4=T at Day 4 (D4); TUV: control batch non treated UV irradiated; TUVJ4=[…] at Day 4; P1J4: product A 4% non irradiated at D4; P2J4: product A 2% non irradiated at D4; P3J4: product A 1% non irradiated at D4; P1UV: product A 4% UV irradiated; P1UVJ4: product A 4% UV irradiated at D4 P2UV: product A 2% UV irradiated; P2UVJ4: product A 2% UV irradiated at D4; P3UV: product A 1% UV irradiated; P3UVJ4: product A 1% UV irradiated at D4

[2] = test system: human living skin explant; test: Immunostaining of carbonylated proteins (FTZ) on human living skin explants
Description: as §1, §2, §3, §4
Protein carbonylation is a type of protein oxidation that can be promoted by reactive oxygen species (ROS), generated by UV exposure. FTZ marker assay was conducted by immunostaining in the living epidermis of human skin explant as follows: Carbonylated proteins were stained on frozen sections with the anti-carbonylated proteins probe (fluorescein-5-thiosemicarbazid-FTZ) (Lifetechnologies, Ref. F-121) diluted at 0.5 μM in MES-Na+ and incubated for 30 minutes in the dark and at room temperature. The staining was observed by epifluorescence and assessed by microscopical observations. Batches analyzed were T, TUV, P1UV, P2UV, P3UV at day 4 also referred to as TJ4, TUVJ4, P1UVJ4, P2UVJ4, P3UVJ4

## O=C(O)[C@@H]1CCCN1 [Combination P4, L-Proline]
MT-1H (Metallothionein)
  effect on pollutant-induced MT-1H: seems to strongly reduce the effect of the pollutants
[1]
  activity against UV-induced DNA damage: strong inhibition of the increase of DNA damage
[2]; UV irradiated
  effect on UV-induced carbonylated proteins: inhibited the formation of carbonylated proteins
[2]; non irradiated, day 4
  Carbonylated proteins (FTZ), variation vs TJ4: ↔ (indicates no variation)
